Legend:
[1] = Therapeutic index, ratio of IC50 for cytotoxicty against mouse BV-2 cells assessed as reduction in cell viability by crystal violet staining based assay to IC50 for nti-neuroinflammatory activity in mouse BV-2 cells assessed as inhibition of LPS-induced NO production; assay type: toxicity; details: read-out: Ratio IC50
[2] = system: BV-2; experiment: Anti-neuroinflammatory activity in mouse BV-2 cells assessed as inhibition of LPS-induced NO production incubated for 24 hrs by microplate reader analysis; assay type: functional, cell-based; details: BV-2, 24 h
[3] = Cytotoxicity against mouse BV-2 cells assessed as reduction in cell viability by crystal violet staining based assay; assay type: toxicity
[4] = Toxicity in BALB/c mouse assessed as cognitive impairment by measuring time spent on new arm at 10 mg/kg, ip administered once daily for 3 days and measured after 45 mins by Y maze test; assay type: organism-based; details: in vivo, 72.75 h, time 4365 min

Row | Structure (SMILES) | selectivity ratio [1] | IC50 [2] [µM] | IC50 [3] [µM] | Activity [4]
1 | C=C(C)[C@@H]1CCC(C)=C[C@H]1c1c(O)cc(CCCCC)cc1OC | 1.6 | 37.2 | 58.2 | 
2 | C=C(C)[C@@H]1CCC(C)=C[C@H]1c1c(O)cc(CCCCC)cc1OCCC |  |  | > 200 | 
3 | C=C(C)[C@@H]1CCC(C)=C[C@H]1c1c(O)cc(CCCC)cc1O | 2.2 | 5 | 11.1 | 
4 | C#CCOc1cc(CCCCC)cc(O)c1[C@@H]1C=C(C)CC[C@H]1C(=C)C | 1.2 | 99.6 | 65 | 
5 | C=C(C)[C@@H]1CCC(C)=C[C@H]1c1c(O)cc(C(C)n2ccnc2)cc1O (stereo partly specified) | 7.4 | 4.4 | 32.6 | 
6 | C=C(C)[C@@H]1CCC(C)=C[C@H]1c1c(O)cc(C(C)n2ccnn2)cc1O (stereo partly specified) | 2.1 | 35.9 | 77.1 | 
7 | C=C(C)[C@@H]1CCC(C)=C[C@H]1c1c(OCC)cc(CCCCC)cc1OCC |  |  | > 200 | 
8 | C=C(C)[C@@H]1CCC(C)=C[C@H]1c1c(O)cc(C(C)n2cccc2)cc1O (stereo partly specified) | 6.5 | 23.9 | 155 | 
9 | CCCCCc1cc(O)c2c(c1)OC(C)(C)[C@@H]1CCC(C)=C[C@@H]21 [DRONABINOL] |  |  |  | Toxic
10 | C=C(C)[C@@H]1CCC(C)=C[C@H]1c1c(O)cc(CC)cc1O | 9.1 | 2.5 | 22.6 | 
11 | C=C(C)[C@@H]1CCC(C)=C[C@H]1c1c(O)cc(CCCCCCCC)cc1O | 0.2 |  | 26.2 | 

Reference: ChEMBL document CHEMBL5360639, “Cannabidiol Analogue CIAC001 for the Treatment of Morphine-Induced Addiction by Targeting PKM2” (J Med Chem, 2023)
